Test results published in patent US20260062443A1 (ALEXION PHARMACEUTICALS, INC., priority 2022, published 2026).

Each molecule was assayed against T1, Human complement C1s enzyme (Homo sapiens, UniProt P09871) (assay: Human C1s enzyme assay). Conditions: human complement C1s enzyme 1.16 nM, substrate Z-L-Lys-SBzl 100 μM, 5 min preincubation; read-out: IC50 (Stars), C1s Inhibiting Activity.
T1 sequence (P09871 438-688 limits assumed): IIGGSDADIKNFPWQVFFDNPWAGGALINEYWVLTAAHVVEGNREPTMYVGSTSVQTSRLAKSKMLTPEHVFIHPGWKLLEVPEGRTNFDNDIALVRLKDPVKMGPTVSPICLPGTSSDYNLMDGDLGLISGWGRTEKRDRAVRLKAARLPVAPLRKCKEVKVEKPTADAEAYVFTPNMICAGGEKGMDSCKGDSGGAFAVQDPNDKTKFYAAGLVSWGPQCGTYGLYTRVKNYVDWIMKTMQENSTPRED
T1 sequence (P09871 16-437 partner limits assumed): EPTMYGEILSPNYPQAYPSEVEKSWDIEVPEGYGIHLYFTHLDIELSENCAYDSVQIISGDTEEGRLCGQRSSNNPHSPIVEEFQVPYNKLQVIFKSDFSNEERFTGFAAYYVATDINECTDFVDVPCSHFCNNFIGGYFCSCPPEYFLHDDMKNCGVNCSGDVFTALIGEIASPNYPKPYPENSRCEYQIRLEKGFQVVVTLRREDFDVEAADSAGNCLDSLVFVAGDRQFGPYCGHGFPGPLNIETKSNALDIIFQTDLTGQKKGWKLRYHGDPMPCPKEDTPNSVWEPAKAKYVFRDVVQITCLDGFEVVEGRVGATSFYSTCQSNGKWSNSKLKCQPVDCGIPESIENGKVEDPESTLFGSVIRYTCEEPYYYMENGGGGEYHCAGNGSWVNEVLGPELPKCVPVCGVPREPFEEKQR
Assay type: biochemical
Method in brief: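 Serum-purified human C1s (1.16 nM final) preincubated 5 min at room temperature with compound in 50 mM Tris, 1 M NaCl, pH 7.5. Z-L-Lys-SBzl and DTNB added at 100 μM each; A405 followed every 30 s for 30 min, and IC50 obtained by nonlinear regression of reaction rates.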
In the case of `O=C(NCC(=O)N1C[C@H](OC(F)F)C[C@H]1C(=O)NCc1ccc2cn[nH]c2c1)c1ccc2c(c1)Oc1ccccc1S2` [Compound 199, (2S,4R)-N-((1H-indazol-6-yl)methyl)-4-(difluoromethoxy)-1-((phenoxathiine-3-carbonyl)glycyl)pyrrolidine-2-carboxamide], the IC50 is reported as > 1000 nM. With `O=C(NCC(=O)N1CC=C[C@H]1C(=O)NCc1cc2cnccc2[nH]1)c1ccc2c(c1)Oc1ccccc1S2` [Compound 261, (S)-N-((1H-pyrrolo[3,2-c]pyridin-2-yl)methyl)-1-((phenoxathiine-3-carbonyl)glycyl)-2,5-dihydro-1H-pyrrole-2-carboxamide] the IC50 was < 100 nM. For `C[C@@H](NC(=O)[C@@H]1CC2(CN1C(=O)CN1Cc3cc(-c4ccc(F)cc4F)ccc3C1=O)OCCO2)c1cc2cnccc2[nH]1` [Compound 122, (S)-N-((R)-1-(1H-pyrrolo[3,2-c]pyridin-2-yl)ethyl)-7-(2-(5-(2,4-difluorophenyl)-1-oxoisoindolin-2-yl)acetyl)-1,4-dioxa-7-azaspiro[4.4]nonane-8-carboxamide], the IC50 was 100 to 1000 nM. In the case of `O=C(NCC(=O)N1C[C@H](OC(F)F)C[C@H]1C(=O)NCc1cc2cnccc2[nH]1)c1cccc(Oc2cccs2)c1` [Compound 275, (2S,4R)-N-((1II-pyrrolo[3,2-c]pyridin-2-yl)methyl)-4-(difluoromethoxy)-1-((3-(thiophen-2-yloxy)benzoyl)glycyl)pyrrolidine-2-carboxamide], the IC50 is reported as < 100 nM. `Cc1cc(F)ccc1Oc1ccc(C(=O)NCC(=O)N2C[C@H](OC(F)F)C[C@H]2C(=O)NCc2cc3cnccc3[nH]2)cc1` [Compound 308, (2S,4R)-N-((1H-pyrrolo[3,2-c]pyridin-2-yl)methyl)-4-(difluoromethoxy)-1-((4-(4-fluoro-2-methylphenoxy)benzoyl)glycyl)pyrrolidine-2-carboxamide] was tested, and the IC50 was < 100 nM.
